Test results: patent publication US9464064B2, “HCV helicase inhibitors and methods of use thereof” (University of Kansas, priority 2011, dated 2016)

target: T1, HCV NS3 helicase NS3h_1b(con1) (Hepatitis C virus genotype 1b, UniProt Q9WMX2); experiment: MBHA screen of NCI mechanistic set library at 20 μM (percent inhibition, compound interference); assay type: biochemical; settings: compounds at 20 μM, MBHA with DNA substrate; assay interference calculated with Equation 2
T1 construct: truncated C-terminally His-tagged NS3 proteins lacking the N-terminal protease, called NS3h; His-tag (C); made in house
T1 sequence (Q9WMX2 1192-1657): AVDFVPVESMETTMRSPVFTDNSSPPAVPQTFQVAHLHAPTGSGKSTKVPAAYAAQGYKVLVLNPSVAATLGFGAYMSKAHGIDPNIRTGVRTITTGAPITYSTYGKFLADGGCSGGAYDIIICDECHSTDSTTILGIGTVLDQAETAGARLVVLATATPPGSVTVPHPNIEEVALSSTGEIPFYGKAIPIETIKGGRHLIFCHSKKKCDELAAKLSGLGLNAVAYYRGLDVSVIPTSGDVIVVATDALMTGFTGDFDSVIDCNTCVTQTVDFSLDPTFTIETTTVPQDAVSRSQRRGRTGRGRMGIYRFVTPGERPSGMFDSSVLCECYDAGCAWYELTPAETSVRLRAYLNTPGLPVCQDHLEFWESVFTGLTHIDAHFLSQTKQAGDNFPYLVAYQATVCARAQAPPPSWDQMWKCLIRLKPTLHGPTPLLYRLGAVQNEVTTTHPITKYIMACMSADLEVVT
In short: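 Molecular beacon-based DNA unwinding assay; compounds screened at 20 μM in triplicate, with DMSO-only negative and 500 nM dT20 positive controls. Fluorescence (ex 643/em 670 nm) was read before and 30 min after adding ATP to 1 mM. Percent inhibition came from the change relative to DMSO controls; interference from pre-ATP fluorescence versus DMSO controls.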

First: Cc1ccc2c(ccc(C=Cc3ccc(O)c4ncccc34)[n+]2C)c1 [Compound 85700]
Second: Cc1c2ccncc2cc2c1[nH]c1ccccc12 [Compound 87206]
The “Int.* (Ratio) (Interference)” value of the first is lower: 0.46 Ratio for the first, 0.92 Ratio for the second.

First: CN(N=O)C(=O)N[C@@H]1[C@@H](O)[C@H](O)[C@@H](CO)O[C@@H]1O [Compound 85998]
Second: Nc1ncnc2c(C3OC(CO)C(O)C3O)[nH]nc12 (stereo not drawn) [Compound 102811]
The “Int.* (Ratio) (Interference)” value of the first is higher: 1.10 Ratio for the first, 1.08 Ratio for the second.

Compared with `Cc1c2c(cc3c1[nH]c1ccccc13)C=NCC2` [Compound 86100], `CC1(c2cccc3ccccc23)OC(=O)c2ccccc21` (stereo not drawn) [Compound 97703] is higher in “Int.* (Ratio) (Interference)” value: 1.00 Ratio for the first, 1.11 Ratio for the second.

Going from `O=c1cccccc1O` [Compound 89303] to `NC(=S)NN=Cc1ncccc1O` [Compound 95678], the “Int.* (Ratio) (Interference)” value rises from 0.93 Ratio to 0.98 Ratio.

First: C=C(C)[C@@H]1CC[C@]2(C)CC[C@]3(C)[C@H](CC[C@@H]4[C@@]5(C)CC[C@H](O)C(C)(C)[C@@H]5CC[C@]43C)[C@@H]12 [Compound 90487]
Second: CC1(C)O[C@@H]2C[C@H]3[C@@H]4C[C@H](F)C5=CC(=O)C=C[C@]5(C)[C@@]4(F)[C@@H](O)C[C@]3(C)[C@]2(C(=O)CO)O1 [Compound 92339]
The “Int.* (Ratio) (Interference)” value of the first is higher: 1.18 Ratio for the first, 1.04 Ratio for the second.

First: CCCCCCCCCc1c(Cl)nc(Cl)nc1Cl [Compound 92510]
Second: Nc1nc(Cl)nc2c1ncn2[C@H]1C[C@H](O)[C@@H](CO)O1 [Compound 105014]
The “Int.* (Ratio) (Interference)” value of the first is higher: 1.00 Ratio for the first, 0.89 Ratio for the second.

Compared with `COc1cc(O)c2c(c1)C(=O)c1cc3c(c(O)c1C2=O)C(OC1OC(C)C(O)C(O)C1OC)C(OC)C(C)(O)C3=O` (stereo not drawn) [Compound 93419], `COC(=O)[C@@H]1c2cc3c(c(O)c2[C@@H](OC)C[C@@]1(C)O)C(=O)c1c(O)cc2c(c1C3=O)O[C@@H]1O[C@@]2(C)[C@H](O)[C@@H](N(C)C)[C@@H]1O` [Compound 102815] is lower in “Int.* (Ratio) (Interference)” value: 0.91 Ratio for the first, 0.76 Ratio for the second.

Going from `CC1=CC(=C(c2ccc(N)cc2)c2ccc(N)cc2)C=CC1=N.Cl` [Compound 93739] to `Cl.Cl.Nc1ccc(OCCCc2c(-c3ccccc3)nc(N)[nH]c2=O)cc1` [Compound 100856], the “Int.* (Ratio) (Interference)” value rises from 0.81 Ratio to 0.98 Ratio.

Compared with `CCN1/C(=C\C(C)=C\c2sc3ccccc3[n+]2CC)Sc2ccccc21.[I-]` [Compound 96932], `[O-][Cl+3]([O-])([O-])[O-].c1ccc(-c2csc3c4ccccc4c4ccccc4[n+]23)cc1` [Compound 98904] is higher in “Int.* (Ratio) (Interference)” value: 0.59 Ratio for the first, 0.89 Ratio for the second.

Compared with `COc1ccc2cc1Oc1ccc(cc1)CC1c3cc(c(OC)cc3CCN1C)Oc1c(OC)c(OC)cc3c1C(C2)N(C)CC3` (stereo not drawn) [Compound 97338], `CCC1CN2CCc3cc(OC)c(OC)cc3C2CC1CC1c2cc(OC)c(OC)cc2CCN1C(=O)C1CCCN1C(=O)OCc1ccccc1` (stereo not drawn) [Compound 103248] is lower in “Int.* (Ratio) (Interference)” value: 0.96 Ratio for the first, 0.92 Ratio for the second.

First: CN1CCC23c4ccccc4NC1C21CCN(C)C3Nc2ccccc21 [Compound 99016]
Second: O=C1OC(c2ccccc2)=N/C1=C\c1ccc(N(CCCl)CCCl)cc1 [Compound 104117]
The “Int.* (Ratio) (Interference)” value of the first is higher: 1.10 Ratio for the first, 1.06 Ratio for the second.

Compared with `Cn1c(=O)[nH]c2nncnc2c1=O` [Compound 99733], `COC(=O)c1ccc(=O)c2nc3/c(=C/O)c(O)cc(=O)c3[nH]c12` [Compound 106995] is lower in “Int.* (Ratio) (Interference)” value: 1.02 Ratio for the first, 0.93 Ratio for the second.

Going from `COc1ccc(C(=O)/C(Br)=C\C(=O)O)cc1` [Compound 104801] to `CO[C@H]1Nc2c(ccc(C)c2O)C(=O)N2C=C(/C=C/C(N)=O)C[C@@H]12` [Compound 106408], the “Int.* (Ratio) (Interference)” value falls from 1.00 Ratio to 0.94 Ratio.

Going from `NC1=C(Br)C(=O)c2ncccc2C1=O` [Compound 105808] to `CC(C)CCCC(=O)CCCCCCC(=O)CCN(O)C(=O)C(N)CO.O=S(=O)(O)O` (stereo not drawn) [Compound 106997], the “Int.* (Ratio) (Interference)” value falls from 1.14 Ratio to 0.96 Ratio.

same assay, conditions: compounds at 20 μM, MBHA with DNA substrate; calculated from Equation 1

First: Cc1ccc2c(ccc(C=Cc3ccc(O)c4ncccc34)[n+]2C)c1 [Compound 85700]
Second: Cc1c2ccncc2cc2c1[nH]c1ccccc12 [Compound 87206]
The “Inh. (%) (Inhibition)” value of the first is lower: 29.7% for the first, 55.6% for the second.

First: CN(N=O)C(=O)N[C@@H]1[C@@H](O)[C@H](O)[C@@H](CO)O[C@@H]1O [Compound 85998]
Second: Nc1ncnc2c(C3OC(CO)C(O)C3O)[nH]nc12 (stereo not drawn) [Compound 102811]
The “Inh. (%) (Inhibition)” value of the first is lower: −19.0% for the first, 1.0% for the second.

Going from `Cc1c2c(cc3c1[nH]c1ccccc13)C=NCC2` [Compound 86100] to `CC1(c2cccc3ccccc23)OC(=O)c2ccccc21` (stereo not drawn) [Compound 97703], the “Inh. (%) (Inhibition)” value falls from 18.6% to −9.3%.

Going from `O=c1cccccc1O` [Compound 89303] to `NC(=S)NN=Cc1ncccc1O` [Compound 95678], the “Inh. (%) (Inhibition)” value falls from 15.8% to −9.0%.

First: C=C(C)[C@@H]1CC[C@]2(C)CC[C@]3(C)[C@H](CC[C@@H]4[C@@]5(C)CC[C@H](O)C(C)(C)[C@@H]5CC[C@]43C)[C@@H]12 [Compound 90487]
Second: CC1(C)O[C@@H]2C[C@H]3[C@@H]4C[C@H](F)C5=CC(=O)C=C[C@]5(C)[C@@]4(F)[C@@H](O)C[C@]3(C)[C@]2(C(=O)CO)O1 [Compound 92339]
The “Inh. (%) (Inhibition)” value of the first is lower: −13.2% for the first, −1.6% for the second.

First: CCCCCCCCCc1c(Cl)nc(Cl)nc1Cl [Compound 92510]
Second: Nc1nc(Cl)nc2c1ncn2[C@H]1C[C@H](O)[C@@H](CO)O1 [Compound 105014]
The “Inh. (%) (Inhibition)” value of the first is lower: −14.2% for the first, 0.4% for the second.

Going from `COc1cc(O)c2c(c1)C(=O)c1cc3c(c(O)c1C2=O)C(OC1OC(C)C(O)C(O)C1OC)C(OC)C(C)(O)C3=O` (stereo not drawn) [Compound 93419] to `COC(=O)[C@@H]1c2cc3c(c(O)c2[C@@H](OC)C[C@@]1(C)O)C(=O)c1c(O)cc2c(c1C3=O)O[C@@H]1O[C@@]2(C)[C@H](O)[C@@H](N(C)C)[C@@H]1O` [Compound 102815], the “Inh. (%) (Inhibition)” value falls from 38.9% to −11.4%.

Compared with `CC1=CC(=C(c2ccc(N)cc2)c2ccc(N)cc2)C=CC1=N.Cl` [Compound 93739], `Cl.Cl.Nc1ccc(OCCCc2c(-c3ccccc3)nc(N)[nH]c2=O)cc1` [Compound 100856] is higher in “Inh. (%) (Inhibition)” value: −13.3% for the first, −11.6% for the second.

Compared with `CCN1/C(=C\C(C)=C\c2sc3ccccc3[n+]2CC)Sc2ccccc21.[I-]` [Compound 96932], `[O-][Cl+3]([O-])([O-])[O-].c1ccc(-c2csc3c4ccccc4c4ccccc4[n+]23)cc1` [Compound 98904] is higher in “Inh. (%) (Inhibition)” value: 38.8% for the first, 41.2% for the second.

First: COc1ccc2cc1Oc1ccc(cc1)CC1c3cc(c(OC)cc3CCN1C)Oc1c(OC)c(OC)cc3c1C(C2)N(C)CC3 (stereo not drawn) [Compound 97338]
Second: CCC1CN2CCc3cc(OC)c(OC)cc3C2CC1CC1c2cc(OC)c(OC)cc2CCN1C(=O)C1CCCN1C(=O)OCc1ccccc1 (stereo not drawn) [Compound 103248]
The “Inh. (%) (Inhibition)” value of the first is higher: −9.0% for the first, −11.6% for the second.

Compared with `CN1CCC23c4ccccc4NC1C21CCN(C)C3Nc2ccccc21` [Compound 99016], `O=C1OC(c2ccccc2)=N/C1=C\c1ccc(N(CCCl)CCCl)cc1` [Compound 104117] is lower in “Inh. (%) (Inhibition)” value: −8.6% for the first, −14.5% for the second.

First: Cn1c(=O)[nH]c2nncnc2c1=O [Compound 99733]
Second: COC(=O)c1ccc(=O)c2nc3/c(=C/O)c(O)cc(=O)c3[nH]c12 [Compound 106995]
The “Inh. (%) (Inhibition)” value of the first is lower: −17.9% for the first, −1.1% for the second.

First: COc1ccc(C(=O)/C(Br)=C\C(=O)O)cc1 [Compound 104801]
Second: CO[C@H]1Nc2c(ccc(C)c2O)C(=O)N2C=C(/C=C/C(N)=O)C[C@@H]12 [Compound 106408]
The “Inh. (%) (Inhibition)” value of the first is lower: −9.5% for the first, 22.7% for the second.

Going from `NC1=C(Br)C(=O)c2ncccc2C1=O` [Compound 105808] to `CC(C)CCCC(=O)CCCCCCC(=O)CCN(O)C(=O)C(N)CO.O=S(=O)(O)O` (stereo not drawn) [Compound 106997], the “Inh. (%) (Inhibition)” value falls from 2.6% to −2.2%.

same assay, conditions: compounds at 20 μM, MBHA with a DNA substrate; calculated from Equation 1

`C[C@H]1CCC/C=C/[C@@H]2C[C@H](O)C[C@H]2[C@H](O)/C=C/C(=O)O1` [Compound 89671] and `CC(C)(C)C1CCC2(CC1)CCN(CCCN1CCOCC1)CC2` [Compound 90829] are the same in “Inh. (%) (Inhibition)” value: −5.9% for the first, −5.9% for the second.

Compared with `CC(=O)NCCCCCCNC(C)=O` [Compound 95580], `CC(=O)c1ccc(Oc2ccc(/C(C)=N/N=C(N)N)cc2)cc1.O=[N+]([O-])O` [Compound 97911] is higher in “Inh. (%) (Inhibition)” value: −3.8% for the first, 11.5% for the second.

First: COC1(O)C(=O)c2ccccc2OC1(OC)c1ccccc1 (stereo not drawn) [Compound 95848]
Second: Cc1ccc(N=Nc2c(O)ccc3ccccc23)cc1 [Compound 106296]
The “Inh. (%) (Inhibition)” value of the first is higher: 7.7% for the first, −5.2% for the second.

Going from `O=c1ccc2ccc(CBr)cc2o1` [Compound 99027] to `CC1(C)N=C(N)N=C(N)N1c1ccc(CCCCc2ccc(Cl)cc2Cl)cc1` [Compound 104129], the “Inh. (%) (Inhibition)” value falls from 10.1% to −42.7%.

same assay, conditions: compounds at 20 μM; assay interference calculated with Equation 2 (fluorescence vs DMSO-only controls before ATP)

Going from `C[C@H]1CCC/C=C/[C@@H]2C[C@H](O)C[C@H]2[C@H](O)/C=C/C(=O)O1` [Compound 89671] to `CC(C)(C)C1CCC2(CC1)CCN(CCCN1CCOCC1)CC2` [Compound 90829], the “Int.* (Ratio) (Interference)” value rises from 1.04 Ratio to 1.16 Ratio.

First: CC(=O)NCCCCCCNC(C)=O [Compound 95580]
Second: CC(=O)c1ccc(Oc2ccc(/C(C)=N/N=C(N)N)cc2)cc1.O=[N+]([O-])O [Compound 97911]
The “Int.* (Ratio) (Interference)” value of the first is lower: 0.93 Ratio for the first, 0.95 Ratio for the second.

Going from `COC1(O)C(=O)c2ccccc2OC1(OC)c1ccccc1` (stereo not drawn) [Compound 95848] to `Cc1ccc(N=Nc2c(O)ccc3ccccc23)cc1` [Compound 106296], the “Int.* (Ratio) (Interference)” value rises from 0.90 Ratio to 1.23 Ratio.

Compared with `O=c1ccc2ccc(CBr)cc2o1` [Compound 99027], `CC1(C)N=C(N)N=C(N)N1c1ccc(CCCCc2ccc(Cl)cc2Cl)cc1` [Compound 104129] is lower in “Int.* (Ratio) (Interference)” value: 0.93 Ratio for the first, 0.92 Ratio for the second.
